Among the targets are Carbonic anhydrase 3 (Homo sapiens, UniProt P07451); Carbonic anhydrase 13 (Homo sapiens, UniProt Q8N1Q1); Carbonic anhydrase 6 (Homo sapiens, UniProt P23280); Carbonic anhydrase 14 (Homo sapiens, UniProt Q9ULX7); Carbonic anhydrase 4 (Homo sapiens, UniProt P22748); Carbonic anhydrase 9 (Homo sapiens, UniProt Q16790); Carbonic anhydrase 1 (Homo sapiens, UniProt P00915).
The next experiment concerns the target T1, Carbonic anhydrase 15 (Mus musculus, UniProt Q99N23).
T1 sequence (Q99N23 whole entry): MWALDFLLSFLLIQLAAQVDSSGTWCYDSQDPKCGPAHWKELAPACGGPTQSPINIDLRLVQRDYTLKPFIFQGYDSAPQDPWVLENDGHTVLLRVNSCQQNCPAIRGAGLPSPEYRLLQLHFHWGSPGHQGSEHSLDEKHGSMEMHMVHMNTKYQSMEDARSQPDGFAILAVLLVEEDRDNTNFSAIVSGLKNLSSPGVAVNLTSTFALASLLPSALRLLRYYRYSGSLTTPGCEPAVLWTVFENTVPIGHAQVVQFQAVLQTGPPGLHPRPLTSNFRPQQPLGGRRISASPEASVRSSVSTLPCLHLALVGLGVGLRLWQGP

The target in experiment [1] is Carbonic anhydrase 5B, mitochondrial (Homo sapiens, UniProt Q9Y2D0).
The next experiment addresses Carbonic anhydrase 7 (Homo sapiens, UniProt P43166). In words: Inhibition of human recombinant CA7 by stopped flow CO2 hydrase assay.
For experiment [2], the target named is Carbonic anhydrase 5A, mitochondrial (Homo sapiens, UniProt P35218).
The next experiment addresses Carbonic anhydrase 12 (Homo sapiens, UniProt O43570). In words: Inhibition of human recombinant CA12 by stopped flow CO2 hydrase assay.

Sequence of Carbonic anhydrase 13 (Q8N1Q1 whole entry): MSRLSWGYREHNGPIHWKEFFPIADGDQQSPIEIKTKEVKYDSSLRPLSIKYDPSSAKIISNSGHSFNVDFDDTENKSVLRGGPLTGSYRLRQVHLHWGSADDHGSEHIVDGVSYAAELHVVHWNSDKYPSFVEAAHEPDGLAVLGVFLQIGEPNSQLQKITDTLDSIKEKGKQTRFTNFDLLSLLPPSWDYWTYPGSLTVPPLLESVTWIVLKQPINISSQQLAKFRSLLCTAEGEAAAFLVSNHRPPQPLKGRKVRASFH
Sequence of Carbonic anhydrase 3 (P07451 whole entry): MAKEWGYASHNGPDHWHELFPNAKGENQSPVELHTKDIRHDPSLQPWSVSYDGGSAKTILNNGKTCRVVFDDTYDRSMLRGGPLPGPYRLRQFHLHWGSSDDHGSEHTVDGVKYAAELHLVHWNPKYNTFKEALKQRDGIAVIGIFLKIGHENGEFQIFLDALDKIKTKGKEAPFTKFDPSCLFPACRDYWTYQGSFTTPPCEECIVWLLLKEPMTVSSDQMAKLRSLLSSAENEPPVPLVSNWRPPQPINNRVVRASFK
Sequence of Carbonic anhydrase 5B, mitochondrial (Q9Y2D0 whole entry): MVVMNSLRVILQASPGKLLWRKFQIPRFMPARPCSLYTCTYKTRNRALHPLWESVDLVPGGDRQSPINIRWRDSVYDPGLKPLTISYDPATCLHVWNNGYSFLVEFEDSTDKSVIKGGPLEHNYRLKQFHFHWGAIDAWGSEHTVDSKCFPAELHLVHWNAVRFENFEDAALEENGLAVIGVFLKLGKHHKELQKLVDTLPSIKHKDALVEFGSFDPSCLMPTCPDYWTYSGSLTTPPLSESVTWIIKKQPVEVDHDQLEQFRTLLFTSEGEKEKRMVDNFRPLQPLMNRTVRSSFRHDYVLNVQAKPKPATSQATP
Sequence of Carbonic anhydrase 1 (P00915 whole entry): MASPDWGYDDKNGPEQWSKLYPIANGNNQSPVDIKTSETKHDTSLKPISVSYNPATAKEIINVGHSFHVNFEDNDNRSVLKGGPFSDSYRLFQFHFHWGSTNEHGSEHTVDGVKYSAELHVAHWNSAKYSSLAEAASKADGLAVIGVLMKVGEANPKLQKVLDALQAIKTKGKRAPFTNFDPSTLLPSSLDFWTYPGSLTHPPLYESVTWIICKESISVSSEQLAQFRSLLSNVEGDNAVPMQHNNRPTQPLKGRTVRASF
Sequence of Carbonic anhydrase 12 (O43570 whole entry): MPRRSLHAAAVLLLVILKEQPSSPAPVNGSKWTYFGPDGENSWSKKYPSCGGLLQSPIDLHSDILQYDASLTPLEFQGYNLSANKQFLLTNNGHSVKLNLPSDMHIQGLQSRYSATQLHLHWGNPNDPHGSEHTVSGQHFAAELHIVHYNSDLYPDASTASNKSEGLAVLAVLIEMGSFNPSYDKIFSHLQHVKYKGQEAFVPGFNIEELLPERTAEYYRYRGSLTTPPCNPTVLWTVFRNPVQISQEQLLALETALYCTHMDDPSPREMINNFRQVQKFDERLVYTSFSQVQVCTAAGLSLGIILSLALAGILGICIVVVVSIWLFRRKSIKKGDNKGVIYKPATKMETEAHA
Sequence of Carbonic anhydrase 7 (P43166 whole entry): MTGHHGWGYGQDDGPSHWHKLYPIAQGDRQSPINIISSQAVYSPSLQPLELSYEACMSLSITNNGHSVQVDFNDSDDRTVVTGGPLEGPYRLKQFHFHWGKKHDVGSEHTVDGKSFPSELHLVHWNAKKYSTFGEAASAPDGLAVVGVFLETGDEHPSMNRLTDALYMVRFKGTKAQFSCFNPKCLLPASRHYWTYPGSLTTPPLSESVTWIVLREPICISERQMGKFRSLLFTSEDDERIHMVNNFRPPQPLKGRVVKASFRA
Sequence of Carbonic anhydrase 4 (P22748 whole entry): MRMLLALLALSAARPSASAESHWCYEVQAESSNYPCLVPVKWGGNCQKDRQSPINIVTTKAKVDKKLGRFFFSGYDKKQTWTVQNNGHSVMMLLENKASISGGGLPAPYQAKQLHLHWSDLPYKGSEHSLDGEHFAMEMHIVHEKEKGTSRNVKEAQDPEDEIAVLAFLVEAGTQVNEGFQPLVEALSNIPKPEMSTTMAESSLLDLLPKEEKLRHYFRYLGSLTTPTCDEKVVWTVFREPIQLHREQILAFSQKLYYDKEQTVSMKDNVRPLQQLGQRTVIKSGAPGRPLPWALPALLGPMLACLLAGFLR
Sequence of Carbonic anhydrase 14 (Q9ULX7 whole entry): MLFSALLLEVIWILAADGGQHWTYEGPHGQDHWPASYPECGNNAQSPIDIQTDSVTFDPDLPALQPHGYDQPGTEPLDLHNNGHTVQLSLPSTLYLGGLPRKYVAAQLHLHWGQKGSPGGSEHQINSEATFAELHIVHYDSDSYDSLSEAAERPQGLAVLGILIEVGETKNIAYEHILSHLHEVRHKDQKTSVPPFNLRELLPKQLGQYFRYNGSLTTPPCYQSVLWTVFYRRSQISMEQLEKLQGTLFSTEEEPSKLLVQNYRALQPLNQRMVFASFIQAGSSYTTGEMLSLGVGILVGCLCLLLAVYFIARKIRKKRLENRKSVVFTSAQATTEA
Sequence of Carbonic anhydrase 5A, mitochondrial (P35218 whole entry): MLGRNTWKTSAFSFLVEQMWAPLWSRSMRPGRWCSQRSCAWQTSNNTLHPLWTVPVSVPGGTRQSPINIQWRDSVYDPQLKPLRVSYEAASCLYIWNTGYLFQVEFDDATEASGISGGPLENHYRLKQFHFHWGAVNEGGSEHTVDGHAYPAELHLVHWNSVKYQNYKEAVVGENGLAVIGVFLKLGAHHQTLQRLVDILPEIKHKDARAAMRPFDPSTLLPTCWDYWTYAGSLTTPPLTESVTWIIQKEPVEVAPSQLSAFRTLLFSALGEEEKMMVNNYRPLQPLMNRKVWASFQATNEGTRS
Sequence of Carbonic anhydrase 6 (P23280 whole entry): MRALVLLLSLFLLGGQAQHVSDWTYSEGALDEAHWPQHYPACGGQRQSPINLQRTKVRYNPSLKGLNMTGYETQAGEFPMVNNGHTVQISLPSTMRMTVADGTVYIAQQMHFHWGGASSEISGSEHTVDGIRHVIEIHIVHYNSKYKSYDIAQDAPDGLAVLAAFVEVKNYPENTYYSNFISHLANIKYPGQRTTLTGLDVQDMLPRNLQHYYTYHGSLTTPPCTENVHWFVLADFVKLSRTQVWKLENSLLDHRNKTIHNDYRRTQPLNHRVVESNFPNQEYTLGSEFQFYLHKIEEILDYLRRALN

Broadly, the Ki is the dissociation constant of the complex between target and ligand, obtained from inhibition or displacement. `COc1cc2oc(=O)ccc2cc1[C@@H](O)CC(C)C` had a Ki at Carbonic anhydrase 15 of 93100 nM.
For `COC[C@@H](NC(C)=O)C(=O)NCc1ccccc1` [LACOSAMIDE], the inhibition constant (Ki) in experiment [1] is 341 nM; on Carbonic anhydrase 3, 374 nM; on Carbonic anhydrase 13, 1210 nM; on Carbonic anhydrase 6, 412 nM; at Carbonic anhydrase 14 it was 473 nM; on Carbonic anhydrase 7 it was 4450 nM. Further, the inhibition constant (Ki) at Carbonic anhydrase 15 was determined as 461 nM; in [2], 4570 nM; at Carbonic anhydrase 4, 525 nM; on Carbonic anhydrase 9, 353 nM; at Carbonic anhydrase 12, 3710 nM; at Carbonic anhydrase 1, 362 nM.
With `Nc1ccc(S(N)(=O)=O)cc1` [SULFANILAMIDE], the inhibition constant Ki at Carbonic anhydrase 3 was found to be 988 nM; on Carbonic anhydrase 13 it was 32 nM.
